Test results taken from BigSolDB 2.1.

Details: in water

O=[N+]([O-])c1ccc(/C=C/c2ccc([N+](=O)[O-])cc2S(=O)(=O)[O-])c(S(=O)(=O)[O-])c1.[Na+].[Na+]
Details	solubility (mole fraction)
284.85 K	0.0013
290.35 K	0.0017
293.05 K	0.00197
296.45 K	0.00228
301.45 K	0.00302
304.55 K	0.00353
307.75 K	0.00394
309.85 K	0.00434
312.05 K	0.00498
316.25 K	0.00595
319.25 K	0.00674
321.95 K	0.00756
